In general, pIC50 refers to −log10 of the IC50, conventionally taken in molar units. Higher therefore signals a low IC50.

The results in this text go back to publication PMC2248166, “Quantitative peptide binding motifs for 19 human and mouse MHC class I molecules derived using positional scanning combinatorial peptide libraries” (Immunome Research, 2008).

pIC50: −log10 of the molar value. Where a SMILES comes first, the peptide text is derived from it.

In this assay the target is HLA A*3201 (Homo sapiens, UniProt P04439, A270S/D101S/D185E/E176V/E277Q/F133L/G103R/G107R/G231S/H175R/I121M/I218V/I322F/K168Q/L105A/L300P/L318F/M331R/P208A/P217A/Q94H/R106L/R138Q/S129P/T104I/T323A/T345S/V100E/V321M/V358M). Briefly: biochemical. The assay is classed as binding.

As for `CC[C@H](C)[C@H](NC(=O)[C@@H](NC(=O)[C@H](Cc1ccccc1)NC(=O)[C@H](CC(C)C)NC(=O)[C@H](Cc1ccccc1)NC(=O)[C@@H](NC(=O)[C@@H](NC(=O)[C@H](CC(C)C)NC(=O)[C@@H](N)CCCCN)[C@@H](C)CC)[C@@H](C)O)C(C)C)C(=O)O` [3102.0370] (H-KLITFLFVI-OH), the pIC50 was 9.39.

As for `CC[C@H](C)[C@H](NC(=O)[C@@H](NC(=O)[C@H](Cc1ccc(O)cc1)NC(=O)[C@H](CCC(=O)O)NC(=O)[C@H](CCCCN)NC(=O)[C@H](Cc1ccccc1)NC(=O)[C@H](CC(N)=O)NC(=O)[C@H](CC(C)C)NC(=O)[C@@H](N)C(C)C)[C@@H](C)O)C(=O)O` [3102.0371] (H-VLNFKEYTI-OH), the pIC50 is 8.09.

`CC[C@H](C)[C@H](NC(=O)[C@@H](NC(=O)[C@H](CC(C)C)NC(=O)[C@@H](NC(=O)[C@H](CO)NC(=O)[C@H](CO)NC(=O)[C@@H](NC(=O)[C@H](CO)NC(=O)[C@H](C)N)[C@@H](C)CC)C(C)C)[C@@H](C)O)C(=O)O` [3102.0373] (H-ASISSVLTI-OH) gave a pIC50 of 7.89.

Consider `CC[C@H](C)[C@H](NC(=O)[C@H](CC(N)=O)NC(=O)[C@H](Cc1ccc(O)cc1)NC(=O)[C@H](CC(=O)O)NC(=O)[C@@H](NC(=O)[C@H](Cc1ccc(O)cc1)NC(=O)[C@H](CC(N)=O)NC(=O)[C@H](CC(C)C)NC(=O)[C@@H](N)CCSC)C(C)C)C(=O)O` [3102.0374] (H-MLNYVDYNI-OH), for which the negative logarithm of the IC50 (pIC50) was 8.80.

`CC[C@H](C)[C@H](N)C(=O)N[C@@H](CC(C)C)C(=O)N1CCC[C@H]1C(=O)N[C@H](C(=O)N[C@H](C(=O)N[C@@H](Cc1ccccc1)C(=O)N[C@@H](CC(C)C)C(=O)N[C@@H](CO)C(=O)N[C@H](C(=O)O)[C@@H](C)CC)[C@@H](C)CC)C(C)C` [3102.0375] (H-ILPVIFLSI-OH) showed a pIC50 of 8.35.

In turn, `CC[C@H](C)[C@H](NC(=O)[C@H](CCC(=O)O)NC(=O)[C@H](Cc1ccccc1)NC(=O)[C@H](CC(N)=O)NC(=O)[C@@H]1CCCN1C(=O)[C@H](CC(N)=O)NC(=O)[C@H](Cc1ccccc1)NC(=O)[C@@H](NC(=O)[C@@H](N)CC(C)C)[C@@H](C)O)C(=O)O` [3102.0377] (H-LTFNPNFEI-OH) showed a pIC50 of 8.28.

As for `CC[C@H](C)[C@H](NC(=O)[C@H](Cc1c[nH]cn1)NC(=O)[C@@H](NC(=O)[C@H](CCSC)NC(=O)[C@H](CCSC)NC(=O)[C@H](CCCCN)NC(=O)[C@H](CCSC)NC(=O)[C@@H](NC(=O)[C@@H](N)CCSC)[C@@H](C)O)C(C)C)C(=O)O` [3102.0378] (H-MTMKMMVHI-OH), the pIC50 is 8.32.

`CC[C@H](C)[C@H](NC(=O)[C@H](C)NC(=O)[C@H](Cc1ccc(O)cc1)NC(=O)[C@H](CO)NC(=O)[C@H](Cc1c[nH]cn1)NC(=O)[C@H](Cc1ccccc1)NC(=O)[C@H](CC(C)C)NC(=O)[C@H](CC(C)C)NC(=O)[C@@H](N)CC(C)C)C(=O)O` [3102.0379] (H-LLLFHSYAI-OH) had a pIC50 of 7.96.

As for `CC[C@H](C)[C@H](NC(=O)[C@@H](N)Cc1c[nH]cn1)C(=O)N[C@@H](Cc1ccc(O)cc1)C(=O)N[C@@H](Cc1ccccc1)C(=O)N[C@H](C(=O)N[C@@H](CO)C(=O)N[C@@H](CC(C)C)C(=O)N[C@@H](CC(C)C)C(=O)N[C@@H](CC(C)C)C(=O)O)C(C)C` [3102.0380] (H-HIYFVSLLL-OH), the pIC50 was 7.82.

Compound `CC(C)C[C@H](NC(=O)[C@@H](NC(=O)[C@@H](NC(=O)[C@@H](NC(=O)[C@@H](NC(=O)[C@@H](NC(=O)[C@H](CC(C)C)NC(=O)[C@@H](NC(=O)[C@@H](N)CCCCN)[C@@H](C)O)[C@@H](C)O)[C@@H](C)O)[C@@H](C)O)C(C)C)C(C)C)C(=O)O` [3102.0381] (H-KTLTTTVVL-OH) showed a pIC50 of 8.03.

Consider `CC[C@H](C)[C@H](N)C(=O)N[C@H](C(=O)N[C@H](C(=O)N[C@@H](Cc1ccc(O)cc1)C(=O)N[C@@H](Cc1ccccc1)C(=O)N[C@@H](CCCNC(=N)N)C(=O)N[C@@H](CCCNC(=N)N)C(=O)N[C@H](C(=O)N[C@H](C(=O)O)[C@@H](C)CC)[C@@H](C)O)C(C)C)[C@@H](C)O` [3102.0382] (H-ITVYFRRTI-OH), for which the pIC50 was 7.59.

For the compound `CC[C@H](C)[C@H](NC(=O)[C@@H](NC(=O)[C@H](CC(C)C)NC(=O)[C@H](CO)NC(=O)[C@H](C)NC(=O)CNC(=O)[C@H](CC(N)=O)NC(=O)[C@H](CO)NC(=O)[C@@H](N)CC(C)C)[C@@H](C)O)C(=O)O` [3102.0383] (H-LSNGASLTI-OH), the pIC50 was 7.13.

For `CC[C@H](C)[C@H](NC(=O)[C@@H]1CCCN1C(=O)[C@H](CC(C)C)NC(=O)[C@@H](NC(=O)[C@H](CC(N)=O)NC(=O)[C@H](Cc1ccc(O)cc1)NC(=O)[C@H](CCSC)NC(=O)[C@@H](NC(=O)[C@@H](N)Cc1ccc(O)cc1)[C@@H](C)CC)[C@@H](C)CC)C(=O)O` [3102.0384] (H-YIMYNILPI-OH), the pIC50 is 7.41.

On to `CC[C@H](C)[C@H](NC(=O)[C@@H](NC(=O)[C@H](CC(N)=O)NC(=O)[C@H](CC(N)=O)NC(=O)[C@H](Cc1ccc(O)cc1)NC(=O)[C@H](CC(C)C)NC(=O)[C@@H](NC(=O)[C@@H](NC(=O)[C@@H](N)Cc1c[nH]cn1)[C@@H](C)O)[C@@H](C)CC)[C@@H](C)O)C(=O)O` [3102.0385] (H-HTILYNNTI-OH), for which the pIC50 is 8.72.

Take `CC[C@H](C)[C@H](NC(=O)[C@H](CCCCN)NC(=O)CNC(=O)[C@H](CC(N)=O)NC(=O)[C@@H](NC(=O)[C@@H](N)CCSC)[C@@H](C)O)C(=O)N[C@@H](CC(N)=O)C(=O)N[C@@H](CO)C(=O)N[C@@H](CC(C)C)C(=O)O` [3102.0386] (H-MTNGKINSL-OH): the pIC50 was 7.66.

Consider `CC[C@H](C)[C@H](N)C(=O)N[C@H](C(=O)N[C@@H](Cc1ccc(O)cc1)C(=O)N[C@@H](Cc1c[nH]c2ccccc12)C(=O)N[C@@H](CO)C(=O)N[C@@H](CCCNC(=N)N)C(=O)N[C@@H](Cc1ccccc1)C(=O)N[C@H](C(=O)N[C@H](C(=O)O)[C@@H](C)CC)[C@@H](C)O)[C@@H](C)O` [3102.0387] (H-ITYWSRFTI-OH), for which the pIC50 is 8.60.

With `CC[C@H](C)[C@H](NC(=O)[C@H](CO)NC(=O)[C@@H](NC(=O)CNC(=O)[C@H](CC(C)C)NC(=O)[C@@H](NC(=O)[C@H](CO)NC(=O)[C@H](CCSC)NC(=O)[C@@H](N)CCCCN)[C@@H](C)CC)C(C)C)C(=O)O` [3102.0388] (H-KMSILGVSI-OH), the pIC50 is 8.62.

For `CC[C@H](C)[C@H](NC(=O)[C@H](CC(N)=O)NC(=O)[C@@H](NC(=O)[C@@H](NC(=O)[C@@H](N)CO)[C@@H](C)O)[C@@H](C)CC)C(=O)N[C@@H](CS)C(=O)N[C@@H](CC(C)C)C(=O)N1CCC[C@H]1C(=O)N[C@@H](Cc1ccc(O)cc1)C(=O)O` [3102.0390] (H-STINICLPY-OH), the pIC50 is 7.49.

Compound `CC[C@H](C)[C@H](NC(=O)[C@H](CC(C)C)NC(=O)[C@H](Cc1c[nH]cn1)NC(=O)[C@@H](N)CCCNC(=N)N)C(=O)N[C@@H](Cc1ccccc1)C(=O)N[C@@H](CO)C(=O)N[C@@H](Cc1ccc(O)cc1)C(=O)N[C@@H](C)C(=O)N[C@@H](Cc1ccccc1)C(=O)O` [3102.0393] (H-RHLIFSYAF-OH) gave a pIC50 of 7.85.

`CC[C@H](C)[C@H](NC(=O)[C@H](CO)NC(=O)[C@H](CS)NC(=O)[C@H](CCSC)NC(=O)[C@@H](N)C(C)C)C(=O)N[C@@H](CO)C(=O)N[C@@H](CC(C)C)C(=O)N[C@H](C(=O)N[C@@H](Cc1ccc(O)cc1)C(=O)O)[C@@H](C)O` [3102.0394] (H-VMCSISLTY-OH) gave a pIC50 of 7.96.

`CC[C@H](C)[C@H](NC(=O)[C@@H]1CCCN1C(=O)[C@H](CC(C)C)NC(=O)[C@@H](NC(=O)[C@H](Cc1ccc(O)cc1)NC(=O)[C@H](Cc1ccccc1)NC(=O)[C@H](CCSC)NC(=O)[C@H](CC(C)C)NC(=O)[C@@H](N)Cc1c[nH]cn1)[C@@H](C)O)C(=O)O` [3102.0397] (H-HLMFYTLPI-OH) had a pIC50 of 9.74.

In turn, `CC[C@H](C)[C@H](NC(=O)[C@H](CC(N)=O)NC(=O)[C@H](CC(N)=O)NC(=O)[C@@H](NC(=O)[C@@H]1CCCN1C(=O)[C@H](CCC(N)=O)NC(=O)[C@H](CC(N)=O)NC(=O)[C@H](CC(C)C)NC(=O)[C@@H](N)CCCNC(=N)N)C(C)C)C(=O)O` [3102.0398] (H-RLNQPVNNI-OH) showed a pIC50 of 7.60.

In the case of `CC[C@H](C)[C@H](N)C(=O)N[C@@H](CO)C(=O)N[C@@H](Cc1c[nH]c2ccccc12)C(=O)N[C@@H](CCSC)C(=O)N[C@@H](CCSC)C(=O)N[C@@H](CCCCN)C(=O)N[C@@H](CC(C)C)C(=O)NCC(=O)N[C@H](C(=O)O)[C@@H](C)CC` [3102.0399] (H-ISWMMKLGI-OH), the pIC50 was 7.38.

Compound `CC[C@H](C)[C@H](NC(=O)[C@@H](NC(=O)[C@H](CC(N)=O)NC(=O)[C@@H](NC(=O)[C@@H](NC(=O)[C@H](C)NC(=O)[C@H](Cc1c[nH]c2ccccc12)NC(=O)[C@H](CC(C)C)NC(=O)[C@@H](N)[C@@H](C)O)[C@@H](C)CC)[C@@H](C)CC)[C@@H](C)O)C(=O)O` [3102.0403] (H-TLWAIINTI-OH) gave a pIC50 of 8.82.

`CC[C@H](C)[C@H](NC(=O)[C@@H](NC(=O)[C@@H]1CCCN1C(=O)[C@@H](NC(=O)[C@H](Cc1ccccc1)NC(=O)[C@H](CC(N)=O)NC(=O)[C@H](CCSC)NC(=O)[C@@H](NC(=O)[C@@H](N)CO)C(C)C)[C@@H](C)CC)[C@@H](C)CC)C(=O)O` [3102.0404] (H-SVMNFIPII-OH) showed a pIC50 of 9.22.

Regarding `CC[C@H](C)[C@H](N)C(=O)N[C@H](C(=O)N[C@@H](Cc1ccc(O)cc1)C(=O)N1CCC[C@H]1C(=O)N[C@@H](CCCCN)C(=O)N[C@@H](C)C(=O)N[C@@H](CC(C)C)C(=O)N[C@H](C(=O)N[C@@H](Cc1ccccc1)C(=O)O)C(C)C)[C@@H](C)O` [3102.0405] (H-ITYPKALVF-OH), the pIC50 was 8.52.

Compound `CC[C@H](C)[C@H](NC(=O)[C@H](CC(C)C)NC(=O)[C@H](CC(C)C)NC(=O)[C@H](CC(C)C)NC(=O)[C@H](CC(C)C)NC(=O)[C@H](CC(N)=O)NC(=O)CNC(=O)[C@H](CC(C)C)NC(=O)[C@@H](N)CCCCN)C(=O)O` [3102.0406] (H-KLGNLLLLI-OH) gave a pIC50 of 9.14.
